The values below come from US7618958B2, “Stereospecific anxiolytic and anticonvulsant agents with reduced muscle-relaxant, sedative-hypnotic and ataxic effects” (WISYS Technology Foundation, Inc., priority 2004, dated 2009).

One data set deals with T1, α1β3γ2 GABAA receptors (Rattus norvegicus, UniProt P18508+P62813).
T1 construct: expressed in transfected cells; host or cells: Xenopus laevis oocytes injected with cRNA
Briefly: Two-electrode voltage clamp in Xenopus oocytes, α1β3γ2. It counts as cell-based. The conditions noted are these: FIG. 1, Xenopus oocytes. As to the method: 1. Effects of SH-053-S—CH3 8 on GABA(A) receptors were tested by two-electrode voltage clamp experiments in cRNA injected Xenopus oocytes that functionally expressed several subtype combinations of GABAA receptors. […] This oocyte profile is indicative of an anxiolytic agent devoid of sedative, ataxic and anterograde amnestic side effects.
The methods were based on those published previously. See Li, X., et al., (2003) J. Med. Chem. 46: 5567-5570.
Cloning of GABAA receptor subunits α1, β3 and γ2 into pCDM8 expression vectors (Invitrogen, CA) has been described elsewhere ([…]). GABAA receptor subunit α4 was cloned in an analogous way. cDNAs for subunits α2, α3 and α5 were gifts from P. Malherbe and were subcloned into pCI-vector (Li, et al., 2003). cDNA for subunit α6 was a gift from P. Seeburg and was subcloned into the vector pGEM-3Z (Promega). After linearizing the cDNA vectors with appropriate restriction endonucleases, capped transcripts were produced using the mMessage mMachine T7 transcription kit (Ambion, Tex.). The capped transcripts were polyadenylated using yeast poly(A) polymerase (USB, OH) and were diluted and stored in diethylpyrocarbonate-treated water at −70° C. (Li, et al., 2003). […]
(In general: Two-electrode voltage clamp holds a large cell at a set potential and records current.)

Data set [1] relates to Male BALB/c mice. Briefly: Light/dark test in mice. It is filed as in vivo, mouse. The conditions noted are these: ip, FIG. 2 A, *p<0.05 vs. vehicle. As to the method:
(§1) Male BALB/c mice approximately 8 to 10 weeks old (18-25 grams) served as subjects in the locomotor activity and light/dark assays. Animals were housed in groups of four on a 14 hour light/10 hour dark cycle and were given free access to food and water. All experiments were conducted during the animals' light cycle (0800-1700).
(§2) Behavioral testing was conducted in an illuminated open field chamber (11.0″×11.0″; Med Associates MED-OFA-510) equipped with infrared beams and sensors which was placed in a sound attenuating cubicle. Horizontal locomotor activity was measured by recording the total number of beams crossed in a 60 minute period. Anxiolytic-like behavior was assessed using the same chambers with the addition of a Plexiglas insert that is opaque to visible light creating separate darkened and illuminated sides (5.5″×11.0″) of the chamber. An opening in the middle of the dark insert allowed the animals to move freely between each side of the chamber. Animals were place in the center of the illuminated side of the chamber and allowed to freely explore for 10 minutes. The amount of time (sec) that the animals spent in each side of the chamber was recorded. Data were analyzed using one-way analysis of variance and Bonferroni t-tests.
Vehicle and doses of SH-053-S—CH3 8 (10.0-100.0 mg/kg) and SH-053-R-CH3 29 (56.0 mg/kg) were tested in the light/dark and locomotor activity assays. […]

For data set [2], the system named is Male BALB/c mice. The data set is described as follows: Locomotor activity in mice. The conditions noted are these: ip. It is filed as in vivo, mouse. As to the method:
as §1, §2
Vehicle and doses of SH-053-S—CH3 8 (10.0-100.0 mg/kg) and SH-053-R-CH3 29 (56.0 mg/kg) were tested in the light/dark and locomotor activity assays. All drugs were administered intraperitoneally (ip) 30 minutes before each test in volumes of approximately 1 ml/kg. Drugs were dissolved in varying amounts of 95% ethanol (5-10%), propylene glycol and sterile water and diluted to the desired concentration with a solution of 50% propylene glycol and 50% sterile water.

T1 sequence (P62813 28-455): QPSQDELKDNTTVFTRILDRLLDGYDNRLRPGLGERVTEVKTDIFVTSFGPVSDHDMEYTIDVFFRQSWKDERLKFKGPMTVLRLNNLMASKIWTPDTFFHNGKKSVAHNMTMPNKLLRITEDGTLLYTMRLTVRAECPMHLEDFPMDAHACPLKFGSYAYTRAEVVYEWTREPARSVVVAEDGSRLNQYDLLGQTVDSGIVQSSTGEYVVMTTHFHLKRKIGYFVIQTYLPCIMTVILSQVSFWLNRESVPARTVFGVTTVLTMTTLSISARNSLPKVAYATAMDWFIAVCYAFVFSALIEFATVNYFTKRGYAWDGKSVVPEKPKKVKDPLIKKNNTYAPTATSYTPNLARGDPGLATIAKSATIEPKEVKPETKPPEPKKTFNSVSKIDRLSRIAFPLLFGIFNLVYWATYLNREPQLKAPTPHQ
T1 sequence (P63079 26-473 partner): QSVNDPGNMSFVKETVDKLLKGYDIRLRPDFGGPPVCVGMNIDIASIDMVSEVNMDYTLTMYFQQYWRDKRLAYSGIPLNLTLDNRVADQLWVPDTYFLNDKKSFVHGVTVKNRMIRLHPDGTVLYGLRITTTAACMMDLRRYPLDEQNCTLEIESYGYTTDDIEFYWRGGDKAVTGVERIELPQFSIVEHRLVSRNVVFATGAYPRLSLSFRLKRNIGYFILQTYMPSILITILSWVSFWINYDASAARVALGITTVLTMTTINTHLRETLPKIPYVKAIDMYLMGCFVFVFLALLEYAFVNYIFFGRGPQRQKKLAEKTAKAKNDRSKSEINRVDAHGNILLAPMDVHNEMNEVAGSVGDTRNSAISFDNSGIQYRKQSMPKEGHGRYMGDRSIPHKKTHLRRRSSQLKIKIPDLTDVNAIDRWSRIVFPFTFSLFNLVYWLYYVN
T1 sequence (P18508 39-466): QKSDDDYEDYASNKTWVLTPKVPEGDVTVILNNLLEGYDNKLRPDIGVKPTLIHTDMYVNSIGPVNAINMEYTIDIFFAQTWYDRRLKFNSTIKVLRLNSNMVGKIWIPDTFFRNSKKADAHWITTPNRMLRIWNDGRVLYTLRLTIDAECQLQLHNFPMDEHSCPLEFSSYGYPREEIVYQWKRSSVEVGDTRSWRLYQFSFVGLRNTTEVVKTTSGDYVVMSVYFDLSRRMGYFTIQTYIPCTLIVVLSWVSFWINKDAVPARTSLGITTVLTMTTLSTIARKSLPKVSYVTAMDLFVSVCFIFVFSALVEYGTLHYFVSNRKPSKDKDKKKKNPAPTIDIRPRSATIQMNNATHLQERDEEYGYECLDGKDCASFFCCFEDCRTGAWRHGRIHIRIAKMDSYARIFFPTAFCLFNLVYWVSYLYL

As to `C#Cc1ccc2c(c1)C(c1ccccc1)=NC(C)c1c(C(=O)OCC)ncn1-2` (centres unmarked) [SH-053-S—CH3, 8-Ethynyl-4-methyl-6-phenyl-4H-2,5,10b-triaza-benzo[e]azulene-3-carboxylic acid ethyl ester], the “efficacy at α1β3γ2 subtypes” value on α1β3γ2 GABAA receptors is listed as “almost no efficacy”. The “time spent in the lighted chamber in the light/dark test” value with Male BALB/c mice [1] is listed as “increased time spent in the lighted chamber”. Besides, the locomotor activity result with Male BALB/c mice [2] (56 mg/kg) is “did not suppress locomotor activity”; with Male BALB/c mice [2] (100 mg/kg), “did not suppress locomotor activity in any significant fashion”; in the data set with Male BALB/c mice [2] (FIG. 2 B) it was “No effects on locomotor activity were observed”.
